Test results reported in the supplement of paper PMC4862054.

How the values were obtained:
Conditions in all cases: incubation time: 72 h
BT-474 [1] = test: normalised response (% of control), CellTox Green; higher = less cell death (100 = DMSO, 0 = benzethonium chloride kill control)
Summary of the method: (§1)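 Compound was dispensed into 384-well plates at 5 concentrations in 10-fold steps spanning a 10,000-fold range specific to that compound. Breast cancer cell lines were added as 20 µl suspension and left for 72 h before CellTox Green fluorescence (485/520 nm) and then CellTiter-Glo luminescence, read after 10 min at room temperature. Each reported value is the normalised signal at one concentration, with 0.1 % DMSO set at 100 and a positive kill control at 0 on each plate.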

BT-549 [2] = test: as above
Summary of the method: as §1

CAL-120 [3] = test: as above
Summary of the method: as §1

CAL-148 [4] = test: as above
Summary of the method: as §1

CAL-51 [5] = test: as above
Summary of the method: as §1

CAL-85-1 [6] = test: as above
Summary of the method: as §1

DU-4475 [7] = test: as above
Summary of the method: as §1

HCC1143 [8] = test: as above
Summary of the method: as §1

HCC1599 [9] = test: as above
Summary of the method: as §1

HCC1937 [10] = test: as above
Summary of the method: as §1

Hs578T [11] = test: as above
Summary of the method: as §1

MCF-10A [12] = test: as above
Summary of the method: as §1

MDA-MB-436 [13] = test: as above
Summary of the method: as §1

MDA-MB-453 [14] = test: as above
Summary of the method: as §1

MDA-MB-468 [15] = test: as above
Summary of the method: as §1

MFM-223 [16] = test: as above
Summary of the method: as §1

BT-474 [17] = test: normalised response (% of control), CellTiter-Glo; higher = more viable cells (100 = DMSO, 0 = benzethonium chloride kill control)
Protocol: (§2)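 DSRT, 72 h incubation, CellTox Green / CellTiter-Glo readout. Signal is normalised to DMSO and benzethonium chloride controls. Value is the normalised response at dose 3.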

BT-549 [18] = test: as above
Protocol: as §2

CAL-120 [19] = test: as above
Protocol: as §2

CAL-148 [20] = test: as above
Protocol: as §2

CAL-51 [21] = test: as above
Protocol: as §2

CAL-85-1 [22] = test: as above
Protocol: as §2

DU-4475 [23] = test: as above
Protocol: as §2

HCC1143 [24] = test: as above
Protocol: as §2

HCC1599 [25] = test: as above
Protocol: as §2

HCC1937 [26] = test: as above
Protocol: as §2

HDQ-P1 [27] = test: as above
Protocol: as §2

Hs578T [28] = test: as above
Protocol: as §2

MCF-10A [29] = test: as above
Protocol: as §2

MDA-MB-231 [30] = test: as above
Protocol: as §2

MDA-MB-436 [31] = test: as above
Protocol: as §2

MDA-MB-453 [32] = test: as above
Protocol: as §2

MDA-MB-468 [33] = test: as above
Protocol: as §2

MFM-223 [34] = test: as above
Protocol: as §2

SK-BR-3 = test: as above
Protocol: as §2

HDQ-P1 [35] = test: normalised response (% of control), CellTox Green; higher = less cell death (100 = DMSO, 0 = benzethonium chloride kill control)
Summary of the method: as §1

MDA-MB-231 [36] = test: as above
Summary of the method: as §1

Compound: COc1cc2nccc(Oc3ccc(NC(=O)C4(C(=O)Nc5ccc(F)cc5)CC4)cc3)c2cc1OC [Cabozantinib] (10 nM)
- normalised response (BT-474 [1]): 95.6%
- normalised response (BT-549 [2]): 107%
- normalised response (CAL-120 [3]): 98.1%
- normalised response (CAL-148 [4]): 76%
- normalised response (CAL-51 [5]): 102%
- normalised response (CAL-85-1 [6]): 96.5%
- normalised response (DU-4475 [7]): 99.5%
- normalised response (HCC1143 [8]): 104%
- normalised response (HCC1599 [9]): 91.5%
- normalised response (HCC1937 [10]): 102%
- normalised response (Hs578T [11]): 69.2%
- normalised response (MCF-10A [12]): 85.1%
- normalised response (MDA-MB-436 [13]): 96.2%
- normalised response (MDA-MB-453 [14]): 101%
- normalised response (MDA-MB-468 [15]): 62.5%
- normalised response (MFM-223 [16]): 100%
- normalised response (BT-474 [17]): 93.9%
- normalised response (BT-549 [18]): 102%
- normalised response (CAL-120 [19]): 98%
- normalised response (CAL-148 [20]): 110%
- normalised response (CAL-51 [21]): 111%
- normalised response (CAL-85-1 [22]): 103%
- normalised response (DU-4475 [23]): 100%
- normalised response (HCC1143 [24]): 99.2%
- normalised response (HCC1599 [25]): 113%
- normalised response (HCC1937 [26]): 94.6%
- normalised response (HDQ-P1 [27]): 93.5%
- normalised response (Hs578T [28]): 99.3%
- normalised response (MCF-10A [29]): 97.2%
- normalised response (MDA-MB-231 [30]): 99.3%
- normalised response (MDA-MB-436 [31]): 105%
- normalised response (MDA-MB-453 [32]): 100%
- normalised response (MDA-MB-468 [33]): 97.8%
- normalised response (MFM-223 [34]): 99.4%
- normalised response (SK-BR-3): 94.3%

Compound: COc1cc([C@@H]2c3cc4c(cc3[C@@H](O[C@@H]3O[C@@H]5CO[C@@H](C)O[C@H]5[C@H](O)[C@H]3O)[C@H]3COC(=O)[C@H]23)OCO4)cc(OC)c1O [Etoposide] (100 nM)
- normalised response (BT-474 [1]): 101%
- normalised response (BT-549 [2]): 92.4%
- normalised response (CAL-120 [3]): 106%
- normalised response (CAL-148 [4]): 92%
- normalised response (CAL-51 [5]): 112%
- normalised response (CAL-85-1 [6]): 95.2%
- normalised response (DU-4475 [7]): 98.8%
- normalised response (HCC1143 [8]): 98.7%
- normalised response (HCC1599 [9]): 110%
- normalised response (HCC1937 [10]): 111%
- normalised response (HDQ-P1 [35]): 92%
- normalised response (MCF-10A [12]): 75%
- normalised response (MDA-MB-231 [36]): 112%
- normalised response (MDA-MB-436 [13]): 107%
- normalised response (MDA-MB-453 [14]): 102%
- normalised response (MDA-MB-468 [15]): 56.9%
- normalised response (MFM-223 [16]): 104%
- normalised response (BT-474 [17]): 99.9%
- normalised response (BT-549 [18]): 94.6%
- normalised response (CAL-120 [19]): 102%
- normalised response (CAL-148 [20]): 103%
- normalised response (CAL-51 [21]): 107%
- normalised response (CAL-85-1 [22]): 102%
- normalised response (DU-4475 [23]): 82.9%
- normalised response (HCC1143 [24]): 100%
- normalised response (HCC1599 [25]): 110%
- normalised response (HCC1937 [26]): 94.9%
- normalised response (HDQ-P1 [27]): 102%
- normalised response (Hs578T [28]): 111%
- normalised response (MCF-10A [29]): 106%
- normalised response (MDA-MB-231 [30]): 120%
- normalised response (MDA-MB-436 [31]): 98.3%
- normalised response (MDA-MB-453 [32]): 113%
- normalised response (MDA-MB-468 [33]): 100%
- normalised response (MFM-223 [34]): 110%
- normalised response (SK-BR-3): 109%

Compound: O=P1(NCCCl)OCCCN1CCCl (configuration not stated) [Ifosfamide] (100 nM)
- normalised response (BT-474 [1]): 100%
- normalised response (BT-549 [2]): 112%
- normalised response (CAL-120 [3]): 98%
- normalised response (CAL-148 [4]): 90.8%
- normalised response (CAL-51 [5]): 90.4%
- normalised response (CAL-85-1 [6]): 110%
- normalised response (DU-4475 [7]): 97.9%
- normalised response (HCC1143 [8]): 74.1%
- normalised response (HCC1599 [9]): 95.1%
- normalised response (HDQ-P1 [35]): 88%
- normalised response (Hs578T [11]): 56.1%
- normalised response (MCF-10A [12]): 102%
- normalised response (MDA-MB-231 [36]): 87.4%
- normalised response (MDA-MB-436 [13]): 102%
- normalised response (MDA-MB-453 [14]): 89.3%
- normalised response (MDA-MB-468 [15]): 194%
- normalised response (MFM-223 [16]): 97.8%
- normalised response (BT-474 [17]): 97%
- normalised response (BT-549 [18]): 102%
- normalised response (CAL-120 [19]): 94.3%
- normalised response (CAL-148 [20]): 92%
- normalised response (CAL-51 [21]): 68.5%
- normalised response (CAL-85-1 [22]): 95.1%
- normalised response (DU-4475 [23]): 95.3%
- normalised response (HCC1143 [24]): 99.7%
- normalised response (HCC1599 [25]): 101%
- normalised response (HCC1937 [26]): 98.2%
- normalised response (HDQ-P1 [27]): 98.9%
- normalised response (Hs578T [28]): 96.8%
- normalised response (MCF-10A [29]): 97.9%
- normalised response (MDA-MB-231 [30]): 91.8%
- normalised response (MDA-MB-436 [31]): 94.9%
- normalised response (MDA-MB-453 [32]): 88.8%
- normalised response (MDA-MB-468 [33]): 94.8%
- normalised response (MFM-223 [34]): 91.2%
- normalised response (SK-BR-3): 89.5%

Compound: CC1(C)NC(=O)N(c2ccc([N+](=O)[O-])c(C(F)(F)F)c2)C1=O [Nilutamide] (100 nM)
- normalised response (BT-474 [1]): 101%
- normalised response (BT-549 [2]): 98.4%
- normalised response (CAL-120 [3]): 102%
- normalised response (CAL-148 [4]): 96.7%
- normalised response (CAL-51 [5]): 109%
- normalised response (CAL-85-1 [6]): 102%
- normalised response (DU-4475 [7]): 103%
- normalised response (HCC1143 [8]): 119%
- normalised response (HCC1599 [9]): 108%
- normalised response (HCC1937 [10]): 119%
- normalised response (Hs578T [11]): 109%
- normalised response (MDA-MB-231 [36]): 105%
- normalised response (MDA-MB-453 [14]): 99.1%
- normalised response (MDA-MB-468 [15]): 148%
- normalised response (MFM-223 [16]): 103%
- normalised response (BT-474 [17]): 105%
- normalised response (BT-549 [18]): 101%
- normalised response (CAL-120 [19]): 102%
- normalised response (CAL-148 [20]): 119%
- normalised response (CAL-51 [21]): 109%
- normalised response (CAL-85-1 [22]): 101%
- normalised response (DU-4475 [23]): 103%
- normalised response (HCC1143 [24]): 105%
- normalised response (HCC1599 [25]): 118%
- normalised response (HCC1937 [26]): 98.4%
- normalised response (HDQ-P1 [27]): 102%
- normalised response (Hs578T [28]): 103%
- normalised response (MCF-10A [29]): 105%
- normalised response (MDA-MB-231 [30]): 101%
- normalised response (MDA-MB-436 [31]): 102%
- normalised response (MDA-MB-453 [32]): 103%
- normalised response (MDA-MB-468 [33]): 105%
- normalised response (MFM-223 [34]): 110%
- normalised response (SK-BR-3): 109%

Compound: CCCCCCCCCCCCCCCCCCOP(=O)([O-])OC1CC[N+](C)(C)CC1 [Perifosine] (25 nM)
- normalised response (BT-474 [1]): 102%
- normalised response (BT-549 [2]): 97.1%
- normalised response (CAL-120 [3]): 103%
- normalised response (CAL-148 [4]): 103%
- normalised response (CAL-51 [5]): 93.7%
- normalised response (CAL-85-1 [6]): 109%
- normalised response (DU-4475 [7]): 104%
- normalised response (HCC1143 [8]): 89.7%
- normalised response (HCC1599 [9]): 97.9%
- normalised response (HCC1937 [10]): 88%
- normalised response (Hs578T [11]): 105%
- normalised response (MCF-10A [12]): 106%
- normalised response (MDA-MB-231 [36]): 92.4%
- normalised response (MDA-MB-436 [13]): 112%
- normalised response (MDA-MB-453 [14]): 99.7%
- normalised response (MDA-MB-468 [15]): 95.6%
- normalised response (MFM-223 [16]): 93.5%
- normalised response (BT-474 [17]): 101%
- normalised response (BT-549 [18]): 101%
- normalised response (CAL-120 [19]): 109%
- normalised response (CAL-148 [20]): 88.8%
- normalised response (CAL-51 [21]): 96.8%
- normalised response (CAL-85-1 [22]): 98.5%
- normalised response (DU-4475 [23]): 96%
- normalised response (HCC1143 [24]): 101%
- normalised response (HCC1599 [25]): 101%
- normalised response (HCC1937 [26]): 103%
- normalised response (HDQ-P1 [27]): 108%
- normalised response (Hs578T [28]): 100%
- normalised response (MCF-10A [29]): 105%
- normalised response (MDA-MB-231 [30]): 105%
- normalised response (MDA-MB-436 [31]): 104%
- normalised response (MDA-MB-453 [32]): 87%
- normalised response (MDA-MB-468 [33]): 100%
- normalised response (MFM-223 [34]): 93.4%
- normalised response (SK-BR-3): 91.3%
